Values joined by “and” are separate entries in the source; they are usually repeats but may differ in a detail not shown here. Equal entries are not always repeated. Toxic doses and inconclusive results are not listed.
Test system: L1210 leukemia ip in BDF1 mice, survival T/C
Experiment: NCI In Vivo Anticancer Drug Screen. Data for tumor model L1210 Leukemia (intraperitoneal) in B6D2F1 (BDF1) mice
Conditions: endpoint: mean survival time, higher = longer survival
Method in brief: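 Transplantable tumor model; survival measured in treated vs vehicle control mice. Value = treated/control.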

[1] = dose: 100.0 mg/kg/injection, schedule: Q01DX009 (ip), vehicle: saline with Tween-80
[2] = dose: 100.0 mg/kg/injection, schedule: Q04DX003 (ip), vehicle: saline with Tween-80
[3] = dose: 200.0 mg/kg/injection, schedule: Q01DX009 (ip), vehicle: saline with Tween-80
[4] = dose: 200.0 mg/kg/injection, schedule: Q04DX003 (ip), vehicle: saline with Tween-80
[5] = dose: 400.0 mg/kg/injection, schedule: Q04DX003 (ip), vehicle: saline with Tween-80
[6] = dose: 50.0 mg/kg/injection, schedule: Q01DX001 (ip), vehicle: carboxymethylcellulose (CMC)
[7] = dose: 100.0 mg/kg/injection, schedule: Q01DX001 (ip), vehicle: carboxymethylcellulose (CMC)
[8] = dose: 200.0 mg/kg/injection, schedule: Q01DX001 (ip), vehicle: carboxymethylcellulose (CMC)
[9] = dose: 400.0 mg/kg/injection, schedule: Q01DX001 (ip), vehicle: carboxymethylcellulose (CMC)
[10] = dose: 12.0 mg/kg/injection, schedule: Q01DX Z (ip), vehicle: carboxymethylcellulose (CMC)
[11] = dose: 25.0 mg/kg/injection, schedule: Q01DX Z (ip), vehicle: carboxymethylcellulose (CMC)
[12] = dose: 50.0 mg/kg/injection, schedule: Q01DX Z (ip), vehicle: carboxymethylcellulose (CMC)

OCCOCCN1CCN(CCCN2c3ccccc3Sc3ccc(C(F)(F)F)cc32)CC1 was tested, and the T/C (dose: 1.6 mg/kg/injection, schedule: Q01DX009 (ip), vehicle: saline) was 104 % of control, the T/C (dose: 6.25 mg/kg/injection, schedule: Q01DX009 (ip), vehicle: saline) was 117 % of control and the T/C (dose: 9.5 mg/kg/injection, schedule: Q01DX001 (ip), vehicle: saline) was 100 % of control. For the same compound, the T/C (dose: 12.5 mg/kg/injection, schedule: Q01DX009 (ip), vehicle: saline) was 93 % of control, the T/C (dose: 12.5 mg/kg/injection, schedule: Q04DX003 (ip), vehicle: saline) was 114 % of control and 124 % of control and the T/C (dose: 18.7 mg/kg/injection, schedule: Q04DX003 (ip), vehicle: saline) was 124 % of control. For the same compound, the T/C (dose: 18.75 mg/kg/injection, schedule: Q01DX009 (ip), vehicle: saline) was 95 % of control, the T/C (dose: 19.0 mg/kg/injection, schedule: Q01DX001 (ip), vehicle: saline) was 107 % of control and the T/C (dose: 25.0 mg/kg/injection, schedule: Q01DX009 (ip), vehicle: saline) was 103 % of control. For the same compound, the T/C (dose: 25.0 mg/kg/injection, schedule: Q04DX003 (ip), vehicle: saline) was 95 % of control and 118 % of control and 120 % of control, the T/C (dose: 33.0 mg/kg/injection, schedule: Q04DX003 (ip), vehicle: saline) was 122 % of control and the T/C (dose: 38.0 mg/kg/injection, schedule: Q01DX001 (ip), vehicle: saline) was 111 % of control. The T/C (dose: 120.0 mg/kg/injection, schedule: Q04DX003 (ip), vehicle: saline) was 150 % of control, the T/C (dose: 150.0 mg/kg/injection, schedule: Q04DX003 (ip), vehicle: saline) was 118 % of control and the T/C (dose: 1.5 micrograms/kg/injection, schedule: Q01DX009 (ip), vehicle: saline) was 95 % of control. The T/C (dose: 3.1 micrograms/kg/injection, schedule: Q01DX009 (ip), vehicle: saline) was 106 % of control, the T/C (dose: 6.2 micrograms/kg/injection, schedule: Q01DX009 (ip), vehicle: saline) was 95 % of control and the T/C (dose: 12.5 micrograms/kg/injection, schedule: Q01DX009 (ip), vehicle: saline) was 93 % of control. For the same compound, the T/C (dose: 25.0 micrograms/kg/injection, schedule: Q01DX009 (ip), vehicle: saline) was 103 % of control, the T/C (dose: 50.0 micrograms/kg/injection, schedule: Q01DX009 (ip), vehicle: saline) was 87 % of control and the T/C (dose: 100.0 micrograms/kg/injection, schedule: Q01DX009 (ip), vehicle: saline) was 103 % of control. The T/C (dose: 200.0 micrograms/kg/injection, schedule: Q01DX009 (ip), vehicle: saline) was 103 % of control.

With CCOC(=O)NC1=NCC(C)(C)S1 the T/C (dose: 75.0 mg/kg/injection, schedule: Q01DX001 (ip), vehicle: saline) was 97 % of control.

For COc1ccc(C(C)c2ccccc2)cc1C(C)c1ccccc1 (stereo not given), the T/C [1] was 93 % of control, the T/C [2] was 98 % of control and the T/C [3] was 95 % of control. The T/C [4] was 89 % of control, the T/C (dose: 400.0 mg/kg/injection, schedule: Q01DX009 (ip), vehicle: saline with Tween-80) was 88 % of control and the T/C [5] was 98 % of control.

For Ic1cccc(Oc2ccccc2)c1, the T/C [1] was 114 % of control and the T/C [3] was 91 % of control.

For CC(=O)CC(SCCSCCSC(CC(C)=O)c1ccccc1)c1ccccc1 (stereo not given), the T/C [6] was 89 % of control, the T/C [7] was 89 % of control and the T/C [8] was 97 % of control. The T/C [9] was 97 % of control.

CCOC(=O)Cn1c2ccccc2c2cc3c(C)nccc3c(C)c21 was tested, and the T/C (dose: 4.69 mg/kg/injection, schedule: Q01DX009 (ip), vehicle: saline with Tween-80) was 93 % of control, the T/C (dose: 9.37 mg/kg/injection, schedule: Q01DX009 (ip), vehicle: saline with Tween-80) was 96 % of control and the T/C (dose: 9.37 mg/kg/injection, schedule: Q04DX003 (ip), vehicle: saline with Tween-80) was 96 % of control. For the same compound, the T/C (dose: 18.75 mg/kg/injection, schedule: Q01DX009 (ip), vehicle: saline with Tween-80) was 95 % of control, the T/C (dose: 18.75 mg/kg/injection, schedule: Q04DX003 (ip), vehicle: saline with Tween-80) was 105 % of control and the T/C (dose: 37.5 mg/kg/injection, schedule: Q01DX009 (ip), vehicle: saline with Tween-80) was 95 % of control. For the same compound, the T/C (dose: 37.5 mg/kg/injection, schedule: Q04DX003 (ip), vehicle: saline with Tween-80) was 96 % of control, the T/C (dose: 75.0 mg/kg/injection, schedule: Q01DX009 (ip), vehicle: saline with Tween-80) was 103 % of control and the T/C (dose: 75.0 mg/kg/injection, schedule: Q04DX003 (ip), vehicle: saline with Tween-80) was 105 % of control. The T/C (dose: 150.0 mg/kg/injection, schedule: Q01DX009 (ip), vehicle: saline with Tween-80) was 97 % of control and the T/C (dose: 150.0 mg/kg/injection, schedule: Q04DX003 (ip), vehicle: saline with Tween-80) was 113 % of control.

In the case of Cc1c2oc3c(C)ccc(C(=O)NCCN4CCN(c5ccccc5)CC4)c3nc-2c(C(=O)NCCN2CCN(c3ccccc3)CC2)c(N)c1=O, the T/C (dose: 100.0 mg/kg/injection, schedule: Q04DX002 (ip), vehicle: saline with Tween-80) is reported as 92 % of control, the T/C (dose: 200.0 mg/kg/injection, schedule: Q04DX002 (ip), vehicle: saline with Tween-80) is reported as 95 % of control and the T/C (dose: 400.0 mg/kg/injection, schedule: Q04DX002 (ip), vehicle: saline with Tween-80) is reported as 95 % of control.

For CCC(=O)c1cc(OC)cc(OC)c1, the T/C (dose: 100.0 mg/kg/injection, schedule: Q01DX009 (ip), vehicle: saline) was 105 % of control, the T/C (dose: 200.0 mg/kg/injection, schedule: Q01DX009 (ip), vehicle: saline) was 105 % of control and the T/C (dose: 400.0 mg/kg/injection, schedule: Q01DX009 (ip), vehicle: saline) was 112 % of control.

In the case of Cc1ccc(S(=O)(=O)OCC23CC4C5CC2C3(COS(=O)(=O)c2ccc(C)cc2)CC54)cc1, the T/C (dose: 75.0 mg/kg/injection, schedule: Q01DX009 (ip), vehicle: Klucel (hydroxypropylcellulose) (HPC)) is reported as 95 % of control, the T/C (dose: 150.0 mg/kg/injection, schedule: Q01DX009 (ip), vehicle: Klucel (hydroxypropylcellulose) (HPC)) is reported as 98 % of control and the T/C (dose: 300.0 mg/kg/injection, schedule: Q01DX009 (ip), vehicle: Klucel (hydroxypropylcellulose) (HPC)) is reported as 93 % of control.

For CN(N=O)C(=O)NCc1c[nH]c(=O)[nH]c1=O, the T/C (dose: 6.0 mg/kg/injection, schedule: Q01DX Z (ip), vehicle: carboxymethylcellulose (CMC)) was 106 % of control, the T/C [10] was 101 % of control and the T/C [11] was 100 % of control. For the same compound, the T/C [12] was 121 % of control.

In the case of CNc1ccc(/C=C2\C=Cc3ccccc32)cc1, the T/C [10] is reported as 95 % of control, the T/C [11] is reported as 98 % of control and the T/C [6] is reported as 101 % of control. For the same compound, the T/C [12] was 120 % of control, the T/C [7] was 101 % of control and the T/C (dose: 100.0 mg/kg/injection, schedule: Q01DX Z (ip), vehicle: carboxymethylcellulose (CMC)) was 93 % of control. For the same compound, the T/C [8] was 108 % of control, the T/C (dose: 200.0 mg/kg/injection, schedule: Q01DX Z (ip), vehicle: carboxymethylcellulose (CMC)) was 98 % of control and the T/C [9] was 100 % of control.

With COc1cc2c(c(OC)c1OC)CCNC2 the T/C (dose: 5.0 mg/kg/injection, schedule: Q01DX001 (ip), vehicle: saline) was 100 % of control, the T/C (dose: 10.0 mg/kg/injection, schedule: Q01DX001 (ip), vehicle: saline) was 100 % of control and the T/C (dose: 20.0 mg/kg/injection, schedule: Q01DX001 (ip), vehicle: saline) was 100 % of control. The T/C (dose: 40.0 mg/kg/injection, schedule: Q01DX001 (ip), vehicle: saline) was 101 % of control.

In the case of Brc1cc(Br)c2c(c1)-c1ccccc1C2, the T/C [7] is reported as 96 % of control, the T/C [8] is reported as 113 % of control and the T/C [9] is reported as 96 % of control.

With CC1CC(=O)c2ccccc2N1S(C)(=O)=O (stereo not given) the T/C (dose: 100.0 mg/kg/injection, schedule: Q01DX009 (ip), vehicle: Klucel (hydroxypropylcellulose) (HPC)) was 95 % of control, the T/C (dose: 100.0 mg/kg/injection, schedule: Q04DX003 (ip), vehicle: Klucel (hydroxypropylcellulose) (HPC)) was 102 % of control and the T/C (dose: 200.0 mg/kg/injection, schedule: Q01DX009 (ip), vehicle: Klucel (hydroxypropylcellulose) (HPC)) was 95 % of control. For the same compound, the T/C (dose: 200.0 mg/kg/injection, schedule: Q04DX003 (ip), vehicle: Klucel (hydroxypropylcellulose) (HPC)) was 102 % of control, the T/C (dose: 400.0 mg/kg/injection, schedule: Q01DX009 (ip), vehicle: Klucel (hydroxypropylcellulose) (HPC)) was 101 % of control and the T/C (dose: 400.0 mg/kg/injection, schedule: Q04DX003 (ip), vehicle: Klucel (hydroxypropylcellulose) (HPC)) was 94 % of control.

For CC1CC(=O)NN1C(=S)Nc1ccccc1 (stereo not given), the T/C [2] was 102 % of control, the T/C [4] was 98 % of control and the T/C [5] was 100 % of control.

For CC(=O)Nc1ccc(S(=O)(=O)C2=CC(=O)c3ccccc3C2=O)cc1, the T/C (dose: 100.0 mg/kg/injection, schedule: Q01DX001 (ip), vehicle: saline) was 95 % of control.
